Assay results: ChEMBL document CHEMBL5352478, “Novel pyridine-containing histone deacetylase inhibitors strongly arrest proliferation, induce apoptosis and modulate miRNAs in cancer cells” (Eur J Med Chem, 2023); call rule not given here

How the values were obtained:
K562 = assay: cells; format: functional, cell-based; conditions: Homo sapiens, K562, 72 h
Histone deacetylase 4 = Histone deacetylase 4 (Homo sapiens, UniProt P56524)
Histone deacetylase 1 = Histone deacetylase 1 (Homo sapiens, UniProt Q13547)
A549 = assay: cells; format: functional, cell-based; conditions: Homo sapiens, A549, 72 h
Histone deacetylase 3 = Histone deacetylase 3 (Homo sapiens, UniProt O15379)
HCT-116 = assay: cells; format: functional, cell-based; conditions: Homo sapiens, HCT-116, 72 h
Histone deacetylase 8 = biological target: T1, Histone deacetylase 8 (Homo sapiens, UniProt Q9BY41)
T1 sequence (Q9BY41 whole entry): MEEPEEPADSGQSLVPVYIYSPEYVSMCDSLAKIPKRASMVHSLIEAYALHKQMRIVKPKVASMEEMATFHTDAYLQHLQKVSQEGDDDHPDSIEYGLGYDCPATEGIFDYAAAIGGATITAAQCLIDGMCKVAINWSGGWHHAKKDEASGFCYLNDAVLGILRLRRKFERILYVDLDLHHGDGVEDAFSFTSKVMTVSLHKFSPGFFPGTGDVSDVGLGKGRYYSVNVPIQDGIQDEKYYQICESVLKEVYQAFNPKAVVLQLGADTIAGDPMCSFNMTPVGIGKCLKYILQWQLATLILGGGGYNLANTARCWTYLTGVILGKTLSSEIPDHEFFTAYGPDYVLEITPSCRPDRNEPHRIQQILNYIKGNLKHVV

[1] = biological target: T2, Protein deacetylase HDAC6 (Homo sapiens, UniProt Q9UBN7)
T2 sequence (Q9UBN7 whole entry): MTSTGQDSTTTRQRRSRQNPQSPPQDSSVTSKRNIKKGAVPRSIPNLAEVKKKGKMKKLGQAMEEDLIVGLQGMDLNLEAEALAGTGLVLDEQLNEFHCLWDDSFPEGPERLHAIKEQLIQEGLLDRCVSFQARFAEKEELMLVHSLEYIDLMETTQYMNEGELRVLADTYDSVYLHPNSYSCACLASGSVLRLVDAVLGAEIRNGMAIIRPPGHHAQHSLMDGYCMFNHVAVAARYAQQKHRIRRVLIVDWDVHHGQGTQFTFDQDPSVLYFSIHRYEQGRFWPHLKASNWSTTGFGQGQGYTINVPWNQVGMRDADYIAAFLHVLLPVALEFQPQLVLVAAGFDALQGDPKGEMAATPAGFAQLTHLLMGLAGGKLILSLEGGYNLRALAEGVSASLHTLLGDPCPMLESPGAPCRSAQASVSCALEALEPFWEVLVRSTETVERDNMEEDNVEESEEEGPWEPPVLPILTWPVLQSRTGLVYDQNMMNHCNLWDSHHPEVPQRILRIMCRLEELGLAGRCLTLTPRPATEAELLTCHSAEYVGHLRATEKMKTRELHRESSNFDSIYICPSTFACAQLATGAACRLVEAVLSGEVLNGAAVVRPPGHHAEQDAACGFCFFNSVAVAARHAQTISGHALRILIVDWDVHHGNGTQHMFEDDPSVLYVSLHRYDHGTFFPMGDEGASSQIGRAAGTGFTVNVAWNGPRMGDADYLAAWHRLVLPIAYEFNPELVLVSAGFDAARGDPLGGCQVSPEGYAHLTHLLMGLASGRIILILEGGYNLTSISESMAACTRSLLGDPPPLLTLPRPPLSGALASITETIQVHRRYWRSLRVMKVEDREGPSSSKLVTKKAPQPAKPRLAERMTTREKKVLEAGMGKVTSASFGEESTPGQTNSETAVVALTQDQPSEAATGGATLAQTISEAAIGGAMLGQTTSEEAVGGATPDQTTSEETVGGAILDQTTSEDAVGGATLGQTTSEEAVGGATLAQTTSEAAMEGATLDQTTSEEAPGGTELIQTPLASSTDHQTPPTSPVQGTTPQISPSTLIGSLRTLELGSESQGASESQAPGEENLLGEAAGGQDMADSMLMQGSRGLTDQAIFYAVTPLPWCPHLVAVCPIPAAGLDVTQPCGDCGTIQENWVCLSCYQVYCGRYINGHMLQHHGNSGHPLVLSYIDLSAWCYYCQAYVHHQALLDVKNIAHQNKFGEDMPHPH

U-937 [2] = assay: Induction of cell cycle arrest in human U-937 cells assessed as accumulation of cells in pre-G1 phase at 5 uM for 24 hrs by PI staining based flow cytometric analysis; format: functional
U-937 [3] = assay: Induction of cell cycle arrest in human U-937 cells assessed as accumulation of cells in G1 phase at 1 to 5 uM for 48 hrs by PI staining based flow cytometric analysis; format: functional; conditions: dose 1-5 µM

Histone deacetylase 3, sequence (O15379 whole entry): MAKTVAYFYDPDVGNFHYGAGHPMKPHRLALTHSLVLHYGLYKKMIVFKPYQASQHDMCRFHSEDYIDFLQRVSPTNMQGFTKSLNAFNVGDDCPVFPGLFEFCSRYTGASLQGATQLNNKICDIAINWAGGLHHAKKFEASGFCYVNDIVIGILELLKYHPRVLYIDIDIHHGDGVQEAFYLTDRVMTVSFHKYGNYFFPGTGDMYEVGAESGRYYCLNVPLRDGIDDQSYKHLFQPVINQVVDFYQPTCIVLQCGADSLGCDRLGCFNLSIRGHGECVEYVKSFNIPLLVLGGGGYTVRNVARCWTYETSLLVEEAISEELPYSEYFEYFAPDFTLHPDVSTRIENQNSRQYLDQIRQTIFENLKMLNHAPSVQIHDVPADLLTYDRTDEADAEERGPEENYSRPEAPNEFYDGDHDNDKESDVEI
Histone deacetylase 1, sequence (Q13547 whole entry): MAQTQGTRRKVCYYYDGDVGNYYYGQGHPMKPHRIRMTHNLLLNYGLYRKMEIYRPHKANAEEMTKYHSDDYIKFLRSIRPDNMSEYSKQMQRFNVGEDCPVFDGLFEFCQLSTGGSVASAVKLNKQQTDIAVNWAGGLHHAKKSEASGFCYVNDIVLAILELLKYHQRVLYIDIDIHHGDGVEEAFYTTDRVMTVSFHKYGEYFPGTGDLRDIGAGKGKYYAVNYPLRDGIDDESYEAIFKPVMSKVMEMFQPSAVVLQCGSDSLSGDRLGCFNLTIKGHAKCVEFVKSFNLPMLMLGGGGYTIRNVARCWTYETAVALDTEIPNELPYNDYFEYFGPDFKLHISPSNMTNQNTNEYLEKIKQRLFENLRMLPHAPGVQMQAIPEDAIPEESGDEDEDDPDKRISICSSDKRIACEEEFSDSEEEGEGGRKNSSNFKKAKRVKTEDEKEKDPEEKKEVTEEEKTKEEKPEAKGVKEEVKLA
Histone deacetylase 4, sequence (P56524 whole entry): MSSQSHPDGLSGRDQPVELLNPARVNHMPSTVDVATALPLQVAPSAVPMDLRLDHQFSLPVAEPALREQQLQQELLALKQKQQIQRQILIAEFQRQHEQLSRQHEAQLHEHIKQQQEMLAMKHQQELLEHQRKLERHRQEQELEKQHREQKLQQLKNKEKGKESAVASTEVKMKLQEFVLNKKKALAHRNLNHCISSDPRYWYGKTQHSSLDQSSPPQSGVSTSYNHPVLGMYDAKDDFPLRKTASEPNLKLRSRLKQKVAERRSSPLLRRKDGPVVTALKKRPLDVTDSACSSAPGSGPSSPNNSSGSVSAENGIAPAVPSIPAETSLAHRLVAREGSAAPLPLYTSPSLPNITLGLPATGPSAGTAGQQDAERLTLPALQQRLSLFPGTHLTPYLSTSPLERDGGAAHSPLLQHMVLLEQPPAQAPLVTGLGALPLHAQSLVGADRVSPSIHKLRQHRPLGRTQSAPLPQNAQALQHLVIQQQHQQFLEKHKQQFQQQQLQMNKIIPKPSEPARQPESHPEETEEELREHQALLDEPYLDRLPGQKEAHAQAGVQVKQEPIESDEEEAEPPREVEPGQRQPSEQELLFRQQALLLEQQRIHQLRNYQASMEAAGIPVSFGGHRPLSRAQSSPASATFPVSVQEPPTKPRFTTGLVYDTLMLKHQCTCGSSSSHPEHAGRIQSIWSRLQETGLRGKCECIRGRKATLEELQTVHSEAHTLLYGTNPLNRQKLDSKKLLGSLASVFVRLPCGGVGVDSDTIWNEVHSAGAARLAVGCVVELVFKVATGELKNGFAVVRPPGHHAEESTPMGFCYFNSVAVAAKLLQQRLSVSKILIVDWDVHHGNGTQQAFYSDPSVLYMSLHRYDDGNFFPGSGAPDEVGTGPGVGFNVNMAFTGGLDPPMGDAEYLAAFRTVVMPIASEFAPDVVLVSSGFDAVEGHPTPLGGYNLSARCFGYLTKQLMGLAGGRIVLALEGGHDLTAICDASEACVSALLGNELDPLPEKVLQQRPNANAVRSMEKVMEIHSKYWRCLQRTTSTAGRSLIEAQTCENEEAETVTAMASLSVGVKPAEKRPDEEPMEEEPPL

## O=C(NO)c1ccc(NC(=O)C(Cc2ccccc2)c2ccccc2)cn1 (configuration not stated)
K562
  IC50: 490 nM
Histone deacetylase 4; read-out: IC50
  IC50: 39200 nM
Histone deacetylase 1
  IC50: 783 nM
A549
  IC50: 2660 nM
Histone deacetylase 3
  IC50: 153 nM
HCT-116
  IC50: 1050 nM
Histone deacetylase 8
  IC50: 1090 nM
[1]; read-out: IC50
  IC50: 16 nM

## CC(C)C(C(=O)Nc1ccc(/C=C/C(=O)NO)nc1)c1ccccc1 (configuration not stated)
K562
  IC50: 180 nM
Histone deacetylase 4; read-out: IC50
  IC50: 16000 nM
Histone deacetylase 1
  IC50: 81 nM
A549
  IC50: 590 nM
Histone deacetylase 3
  IC50: 28 nM
HCT-116
  IC50: 260 nM
Histone deacetylase 8
  IC50: 168 nM
[1]; read-out: IC50
  IC50: 10 nM

## Nc1ccccc1NC(=O)c1ccc(NC(=O)Cc2ccccc2)cn1
K562
  IC50: 540 nM
Histone deacetylase 4
  IC50: Not Active
Histone deacetylase 1
  IC50: 201 nM
A549
  IC50: 1350 nM
Histone deacetylase 3
  IC50: 248 nM
HCT-116
  IC50: 560 nM
Histone deacetylase 8
  IC50: 77100 nM
[1]
  IC50: Not Active

## O=C(CCCCCCC(=O)Nc1ccccc1)NO [VORINOSTAT]
U-937 [2]
  Activity: 10%
U-937 [3]
  Activity: 70%

## O=C(Cc1cccc2ccccc12)Nc1ccc(C(=O)NO)nc1
Histone deacetylase 4; read-out: IC50
  IC50: 30700 nM
Histone deacetylase 1
  IC50: 2850 nM
Histone deacetylase 3
  IC50: 1390 nM
Histone deacetylase 8
  IC50: 1810 nM
[1]; read-out: IC50
  IC50: 58 nM

## CC(C)C(C(=O)Nc1ccc(C(=O)Nc2ccccc2N)nc1)c1ccccc1 (configuration not stated)
Histone deacetylase 4
  IC50: Not Active
Histone deacetylase 1
  IC50: 330 nM
Histone deacetylase 3
  IC50: 488 nM
Histone deacetylase 8
  IC50: 75200 nM
[1]
  IC50: Not Active

## Nc1ccccc1NC(=O)c1ccc(NC(=O)Cc2cccc3ccccc23)cn1
Histone deacetylase 4
  IC50: Not Active
Histone deacetylase 1
  IC50: 129 nM
Histone deacetylase 3
  IC50: 289 nM
Histone deacetylase 8
  IC50: 98400 nM
[1]
  IC50: Not Active

## O=C(Cc1ccccc1)Nc1ccc(C(=O)NO)nc1
Histone deacetylase 4; read-out: IC50
  IC50: 82400 nM
Histone deacetylase 1
  IC50: 3000 nM
Histone deacetylase 3
  IC50: 2060 nM
Histone deacetylase 8
  IC50: 1090 nM
[1]; read-out: IC50
  IC50: 174 nM

## CCC(C(=O)Nc1ccc(C(=O)NO)nc1)c1ccccc1 (configuration not stated)
K562
  IC50: 1780 nM
Histone deacetylase 4; read-out: IC50
  IC50: 77900 nM
Histone deacetylase 1
  IC50: 1490 nM
A549
  IC50: 5470 nM
Histone deacetylase 3
  IC50: 777 nM
HCT-116
  IC50: 1680 nM
Histone deacetylase 8
  IC50: 964 nM
[1]; read-out: IC50
  IC50: 51 nM

## CCC(C(=O)Nc1ccc(C(=O)Nc2ccccc2N)nc1)c1ccccc1 (configuration not stated)
Histone deacetylase 4
  IC50: Not Active
Histone deacetylase 1
  IC50: 321 nM
Histone deacetylase 3
  IC50: 433 nM
Histone deacetylase 8
  IC50: 66200 nM
[1]
  IC50: Not Active

## O=C(/C=C/c1ccc(NC(=O)Cc2ccc3ccccc3c2)cn1)NO
K562
  IC50: 130 nM
Histone deacetylase 4; read-out: IC50
  IC50: 17600 nM
Histone deacetylase 1
  IC50: 376 nM
A549
  IC50: 600 nM
Histone deacetylase 3
  IC50: 168 nM
HCT-116
  IC50: 210 nM
Histone deacetylase 8
  IC50: 1010 nM
[1]; read-out: IC50
  IC50: 112 nM
